Results as given in patent publication US10023565B2, “N,N′ substituted piperidinamine compounds, and preparation method and usage thereof” (Institute of Pharmacology and Toxicology Academy of …, priority 2013, dated 2018).

Key:
Test in all cases: Extended test against tumor cell lines (ATPlite)
Format in all cases: cell-based
A549 = A549 (lung cancer), 72 hours
How it was run: (§1)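 First, adherent cells were trypsinised, plated at 5000 cells/well and allowed 24 h to attach. Next, compound was added at final concentrations of 4, 1, 0.25, 0.063 and 0.016 μM for 72 h at 37 °C. Finally, ATPlite substrate was added and luminescence recorded.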

AsPC-1 = AsPC-1 (pancreatic cancer), 72 hours
How it was run: as §1

BGC823 = BGC823 (gastric cancer), 72 hours
How it was run: as §1

HT-29 = HT-29 (colorectal cancer), 72 hours
How it was run: as §1

MIA-PaCa-2 = MIA-PaCa-2 (pancreatic cancer), 72 hours
How it was run: as §1

N87 = N87 (gastric cancer), 72 hours
How it was run: as §1

SMILES | Survival rate (A549; 0.016 μM) [%] | Survival rate (A549; 0.063 μM) [%] | Survival rate (A549; 0.25 μM) [%] | Survival rate (A549; 1 μM) [%] | Survival rate (A549; 4 μM) [%] | Survival rate (AsPC-1; 0.016 μM) [%] | Survival rate (AsPC-1; 0.063 μM) [%] | Survival rate (AsPC-1; 0.25 μM) [%] | Survival rate (AsPC-1; 1 μM) [%] | Survival rate (AsPC-1; 4 μM) [%] | Survival rate (BGC823; 0.016 μM) [%] | Survival rate (BGC823; 0.063 μM) [%] | Survival rate (BGC823; 0.25 μM) [%] | Survival rate (BGC823; 1 μM) [%] | Survival rate (BGC823; 4 μM) [%] | Survival rate (HT-29; 0.016 μM) [%] | Survival rate (HT-29; 0.063 μM) [%] | Survival rate (HT-29; 0.25 μM) [%] | Survival rate (HT-29; 1 μM) [%] | Survival rate (HT-29; 4 μM) [%] | other results
CSc1nccc(N2CCC(N(C)Cc3c(F)cccc3Cl)CC2)n1 [Example 37, N-methyl-N-(2-fluoro-6-chlorobenzyl)-N-[1-(2-methylthiopyrimidin-4-yl)piperidin-4-yl]amine] | 99.5 | 98.5 | 97.6 | 73 | 39.5 | 98.8 | 99.5 | 94.1 | 81.7 | 52.3 | 97.6 | 97.2 | 90.2 | 59.7 | 21 | 99.3 | 97.4 | 94.4 | 82.1 | 33.8 | Survival rate (MIA-PaCa-2; 0.016 μM): 97.6%; Survival rate (MIA-PaCa-2; 0.063 μM): 97.5%; Survival rate (MIA-PaCa-2; 0.25 μM): 91.5%; Survival rate (MIA-PaCa-2; 1 μM): 61.9%; Survival rate (MIA-PaCa-2; 4 μM): 16%; Survival rate (N87; 0.016 μM): 98.9%; Survival rate (N87; 0.063 μM): 95.6%; Survival rate (N87; 0.25 μM): 89.7%; Survival rate (N87; 1 μM): 66.8%; Survival rate (N87; 4 μM): 37.1%
CSc1nccc(N2CCC(N(C)Cc3ccc(Cl)cc3Cl)CC2)n1 [Example 40, N-methyl-N-(2,4-dichlorobenzyl)-N-[1-(2-methylthiopyrimidin-4-yl)piperidin-4-yl]amine] | 97.1 | 95.9 | 95.3 | 81.2 | 38 | 97.8 | 96.1 | 93.1 | 83.3 | 51.2 | 98.3 | 103.1 | 91.3 | 73.7 | 21.1 | 100.6 | 105.4 | 102 | 89.2 | 41.2 | Survival rate (MIA-PaCa-2; 0.016 μM): 94.6%; Survival rate (MIA-PaCa-2; 0.063 μM): 94.8%; Survival rate (MIA-PaCa-2; 0.25 μM): 90.2%; Survival rate (MIA-PaCa-2; 1 μM): 77.3%; Survival rate (MIA-PaCa-2; 4 μM): 20.6%; Survival rate (N87; 0.016 μM): 97.9%; Survival rate (N87; 0.063 μM): 92.7%; Survival rate (N87; 0.25 μM): 89.7%; Survival rate (N87; 1 μM): 71.5%; Survival rate (N87; 4 μM): 36.3%
CSc1nccc(N2CCC(N(C)Cc3ccccc3Cl)CC2)n1 [Example 47, N-methyl-N-(2-chlorobenzyl)-N-[1-(2-methylthiopyrimidin-4-yl)piperidin-4-yl]amine] | 98.1 | 95.3 | 93 | 88.7 | 45.9 | 100.2 | 94.7 | 92.8 | 85.3 | 53.6 | 99.8 | 100.6 | 98.4 | 84.3 | 24.5 | 102.8 | 102.1 | 101.6 | 93.1 | 48.8 | Survival rate (MIA-PaCa-2; 0.016 μM): 98.5%; Survival rate (MIA-PaCa-2; 0.063 μM): 99.3%; Survival rate (MIA-PaCa-2; 0.25 μM): 97.4%; Survival rate (MIA-PaCa-2; 1 μM): 88.5%; Survival rate (MIA-PaCa-2; 4 μM): 24.5%; Survival rate (N87; 0.016 μM): 89.6%; Survival rate (N87; 0.063 μM): 91.3%; Survival rate (N87; 0.25 μM): 87.8%; Survival rate (N87; 1 μM): 68.6%; Survival rate (N87; 4 μM): 34.8%
CSc1nccc(N2CCC(N(C)Cc3c(Cl)cccc3Cl)CC2)n1 [Example 49, N-methyl-N-(2,6-dichlorobenzyl)-N-[1-(2-methylthiopyrimidin-4-yl)piperidin-4-yl]amine] | 99.9 | 95.1 | 95.2 | 60.5 | 40.1 | 99.1 | 97.5 | 93.8 | 64.4 | 44.3 | 102.8 | 102.4 | 95.1 | 44 | 17.3 | 96.3 | 91 | 84.7 | 63.9 | 25.1 | Survival rate (MIA-PaCa-2; 0.016 μM): 97.6%; Survival rate (MIA-PaCa-2; 0.063 μM): 97.4%; Survival rate (MIA-PaCa-2; 0.25 μM): 92.8%; Survival rate (MIA-PaCa-2; 1 μM): 33.1%; Survival rate (MIA-PaCa-2; 4 μM): 22.9%; Survival rate (N87; 0.016 μM): 89.5%; Survival rate (N87; 0.063 μM): 74.1%; Survival rate (N87; 0.25 μM): 65.6%; Survival rate (N87; 1 μM): 42.8%; Survival rate (N87; 4 μM): 26%
